Test results as given in patent US20220370440A1 (Lead Discovery Center GmbH, priority 2018, published 2022).
pIC50: −log10 of the molar value.

What was measured:
[1] = Metabolic stability in mouse liver microsomes without cofactor NADPH; type: in vitro ADME; settings: 3 μM test compound, mouse liver microsomes, without NADPH, 50 min, 37° C., LC-MS/MS
Method in brief: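 Cofactor-free incubation: no NADPH added to mouse liver microsomes, with compound at 3 μM and 37° C. Remaining parent was quantified by LC-MS/MS at time points up to 50 minutes to track depletion.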

H1781 = H1781 CellTiter-Glo; type: cell-based; settings: NCI-H1781; 72 h compound incubation; read-out: H1781 CTG IC50
Procedure: 2. Measurement of Cellular Activity
The CellTiter-Glo Luminescent Cell Viability Assay (Promega) is a homogeneous method of determining the number of viable cells in culture. It is based on quantification of ATP, indicating the presence of metabolically active cells. Cells are seeded on day 1 at cell numbers that assure assay linearity and optimal signal intensity. After incubation for 24 h in humidified chambers at 37° C. and 5% CO2, compounds in DMSO are added at different concentrations. Cells are further incubated for 72 h at 37° C. and 5% CO2. Cells treated with the compound vehicle DMSO are used as positive controls and cells treated with 10 μM Staurosporine serve as negative controls. At day 5 the CellTiter Glo Reagent is prepared according to the instructions of the kit (Promega Inc.): Reagent is mixed 1:1 with cell culture medium. Thereon, mixture and assay plates are equilibrated at room temperature for 20 min. Equal volumes of the reagent-medium-mixture is added to the volume of culture medium present in each well. The plates are mixed at ˜200 rpm for 2 minutes on an orbital shaker. The microplates are then incubated at room temperature for 10 minutes for stabilization of the luminescent signal. Following incubation the luminescence is recorded on a Victor microplate reader (Perkin Elmer) using a 200 ms integration time. The data is then analyzed with Excel using the XLFIT Plugin (dose response Fit 205) for IC50-determination. As quality control the Z′-factor is calculated from 16 positive and negative control values. Only assay results showing a Z′-factor ≥0.5 are used for further analysis.
(§1) Inhibition is indicated as […] [nM] (“−”=not measured). Compounds having an activity designated as “A” provided an IC50≤100 nM; compounds having an activity designated as “B” provided an 100 nM<IC50≤500 nM; compounds having an activity designated as “C” provided an 500 nM<IC50≤1000 nM; compounds having an activity designated as “D” provided an 1000 nM<IC50≤100000 nM; and compounds having an activity designated as “E” provided an IC50>10000 nM.

HER2 INS YVMA = target: T1, HER2 INS YVMA (Homo sapiens, UniProt P04626, INS775YVMA); assay: Lance Kinase Activity Assay, HER2 INS YVMA (Her2 Exon 20 INSYVMA Lance); type: biochemical; settings: biochemical Lance assay
T1 construct: purchased DPF
Method in brief: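 IC50 was fitted to sigmoidal curves of TR-FRET signal (665 and 615 nm emission after 340 nm excitation) from an Eu anti-phospho antibody binding the phosphorylated ULight peptide. The ATP-started reaction ran 1 h at RT and was then quenched with 10 mM EDTA plus antibody for a further 1 h. Compounds were tested as 8-point, 3-fold dilutions.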

EGFR T790ML858R = EGFR T790ML858R (Homo sapiens, UniProt P00533, L858R/T790M); assay: EGFR T790ML858R Lance assay; type: biochemical
Procedure: as §1

[2] = target: EGFR Exon 20 INSNPH Ba/F3 (Homo sapiens, UniProt P00533, DUP771-773, cells depend on it); assay: EGFR Exon 20 INSNPH Ba/F3 CellTiter-Glo; type: cell-based; settings: CellTiter-Glo, 72 h, read-out: EGFR Exon 20 INSNPH Ba/F3 CTG IC50
Method in brief: (§2)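 ATP-based luminescence (CellTiter-Glo) after 72 h compound exposure gives viability; IC50 from dose-response fit. Cells seeded 24 h ahead at 37 °C, 5% CO2. Controls: DMSO vehicle and 10 μM staurosporine; runs kept only if Z′ ≥0.5.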

EGFR wt = EGFR wt (Homo sapiens, UniProt P00533); assay: EGFR wt Lance assay; type: biochemical
Procedure: as §1

H1975 = H1975 CellTiter-Glo; type: cell-based; settings: Homo sapiens, NCI-H1975; 72 h compound incubation; read-out: H1975 CTG IC50
Method in brief: (§3)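 72 h compound exposure after 24 h attachment, 37° C./5% CO2; CellTiter-Glo ATP luminescence read-out; IC50 by dose-response fit; DMSO vehicle and 10 μM Staurosporine as controls; plates accepted only if Z′ ≥0.5.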

[3] = target: Her2 Exon 20 INSYVMA Ba/F3 (Homo sapiens, UniProt P04626, DUP772-775, cells depend on it); assay: Her2 Exon 20 INSYVMA Ba/F3 CellTiter-Glo; type: cell-based; settings: CellTiter-Glo, 72 h, read-out: Her2 Exon 20 INSYVMA Ba/F3 CTG IC50
Method in brief: as §2

A431 = A431 CellTiter-Glo; type: cell-based; settings: Homo sapiens, A-431; 72 h compound incubation; read-out: A431 CTG IC50
Method in brief: as §3

EGFR wt, sequence (P00533 25-1210): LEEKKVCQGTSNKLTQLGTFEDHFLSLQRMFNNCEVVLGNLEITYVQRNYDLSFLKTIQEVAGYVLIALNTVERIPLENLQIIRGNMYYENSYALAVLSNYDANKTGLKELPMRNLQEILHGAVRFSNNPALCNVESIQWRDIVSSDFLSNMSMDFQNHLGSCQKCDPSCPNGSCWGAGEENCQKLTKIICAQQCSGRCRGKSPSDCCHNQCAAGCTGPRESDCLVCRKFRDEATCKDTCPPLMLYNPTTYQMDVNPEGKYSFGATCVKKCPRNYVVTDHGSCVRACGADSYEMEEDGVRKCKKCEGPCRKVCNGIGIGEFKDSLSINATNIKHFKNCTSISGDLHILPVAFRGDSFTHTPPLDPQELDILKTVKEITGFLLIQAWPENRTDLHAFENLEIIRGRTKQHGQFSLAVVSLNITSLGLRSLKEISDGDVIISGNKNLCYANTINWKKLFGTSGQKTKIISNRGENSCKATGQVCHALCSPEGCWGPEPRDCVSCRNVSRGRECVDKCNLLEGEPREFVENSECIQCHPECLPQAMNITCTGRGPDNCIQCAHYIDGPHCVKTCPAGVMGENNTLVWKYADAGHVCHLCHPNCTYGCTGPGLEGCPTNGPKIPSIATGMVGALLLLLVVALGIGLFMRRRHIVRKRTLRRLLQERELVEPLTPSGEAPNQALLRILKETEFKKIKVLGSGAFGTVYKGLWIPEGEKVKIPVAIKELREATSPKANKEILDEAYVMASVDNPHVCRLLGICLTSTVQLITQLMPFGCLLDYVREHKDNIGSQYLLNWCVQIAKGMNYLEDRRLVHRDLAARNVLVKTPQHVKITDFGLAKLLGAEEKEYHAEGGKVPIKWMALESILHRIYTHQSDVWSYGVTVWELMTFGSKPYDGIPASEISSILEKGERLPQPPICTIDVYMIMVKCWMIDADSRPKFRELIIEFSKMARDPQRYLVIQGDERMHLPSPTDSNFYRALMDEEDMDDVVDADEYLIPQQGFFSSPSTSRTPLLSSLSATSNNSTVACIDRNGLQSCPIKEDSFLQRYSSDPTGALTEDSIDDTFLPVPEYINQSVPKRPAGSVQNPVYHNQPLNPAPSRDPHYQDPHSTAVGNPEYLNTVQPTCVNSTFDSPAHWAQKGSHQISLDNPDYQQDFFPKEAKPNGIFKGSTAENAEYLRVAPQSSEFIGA
EGFR T790ML858R, sequence (P00533 25-1210 T790M/L858R): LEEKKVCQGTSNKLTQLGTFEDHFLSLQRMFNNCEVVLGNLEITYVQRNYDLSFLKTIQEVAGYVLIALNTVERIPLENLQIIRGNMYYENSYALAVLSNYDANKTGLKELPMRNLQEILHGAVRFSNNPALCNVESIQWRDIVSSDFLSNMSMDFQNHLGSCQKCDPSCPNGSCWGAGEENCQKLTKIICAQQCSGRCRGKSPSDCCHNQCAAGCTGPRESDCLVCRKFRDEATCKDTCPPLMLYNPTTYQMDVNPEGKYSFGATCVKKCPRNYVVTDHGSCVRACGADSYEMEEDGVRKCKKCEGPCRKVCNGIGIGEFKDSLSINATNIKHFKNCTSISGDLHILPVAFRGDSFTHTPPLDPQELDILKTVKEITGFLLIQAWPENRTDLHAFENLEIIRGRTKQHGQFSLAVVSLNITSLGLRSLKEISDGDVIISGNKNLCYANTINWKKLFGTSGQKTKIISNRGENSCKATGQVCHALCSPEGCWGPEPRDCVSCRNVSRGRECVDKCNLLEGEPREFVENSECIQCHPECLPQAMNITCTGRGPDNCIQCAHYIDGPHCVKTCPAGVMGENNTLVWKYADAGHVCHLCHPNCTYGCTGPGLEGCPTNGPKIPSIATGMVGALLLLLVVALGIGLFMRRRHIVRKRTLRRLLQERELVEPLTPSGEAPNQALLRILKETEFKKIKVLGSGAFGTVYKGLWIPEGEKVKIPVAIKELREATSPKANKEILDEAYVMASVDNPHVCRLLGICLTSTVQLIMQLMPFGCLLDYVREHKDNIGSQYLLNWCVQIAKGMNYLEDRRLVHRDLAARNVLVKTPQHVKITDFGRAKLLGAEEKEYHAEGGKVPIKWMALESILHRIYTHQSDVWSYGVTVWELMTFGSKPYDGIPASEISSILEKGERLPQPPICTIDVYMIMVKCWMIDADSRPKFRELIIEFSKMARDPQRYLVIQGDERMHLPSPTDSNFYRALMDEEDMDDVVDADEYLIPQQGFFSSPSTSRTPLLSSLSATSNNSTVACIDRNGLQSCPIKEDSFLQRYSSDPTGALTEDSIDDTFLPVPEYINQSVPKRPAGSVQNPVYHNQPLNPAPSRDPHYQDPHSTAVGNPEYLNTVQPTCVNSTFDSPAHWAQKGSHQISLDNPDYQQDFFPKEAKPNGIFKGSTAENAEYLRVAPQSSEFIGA
T1 sequence (P04626 with tags, fused parts or gaps INS775YVMA): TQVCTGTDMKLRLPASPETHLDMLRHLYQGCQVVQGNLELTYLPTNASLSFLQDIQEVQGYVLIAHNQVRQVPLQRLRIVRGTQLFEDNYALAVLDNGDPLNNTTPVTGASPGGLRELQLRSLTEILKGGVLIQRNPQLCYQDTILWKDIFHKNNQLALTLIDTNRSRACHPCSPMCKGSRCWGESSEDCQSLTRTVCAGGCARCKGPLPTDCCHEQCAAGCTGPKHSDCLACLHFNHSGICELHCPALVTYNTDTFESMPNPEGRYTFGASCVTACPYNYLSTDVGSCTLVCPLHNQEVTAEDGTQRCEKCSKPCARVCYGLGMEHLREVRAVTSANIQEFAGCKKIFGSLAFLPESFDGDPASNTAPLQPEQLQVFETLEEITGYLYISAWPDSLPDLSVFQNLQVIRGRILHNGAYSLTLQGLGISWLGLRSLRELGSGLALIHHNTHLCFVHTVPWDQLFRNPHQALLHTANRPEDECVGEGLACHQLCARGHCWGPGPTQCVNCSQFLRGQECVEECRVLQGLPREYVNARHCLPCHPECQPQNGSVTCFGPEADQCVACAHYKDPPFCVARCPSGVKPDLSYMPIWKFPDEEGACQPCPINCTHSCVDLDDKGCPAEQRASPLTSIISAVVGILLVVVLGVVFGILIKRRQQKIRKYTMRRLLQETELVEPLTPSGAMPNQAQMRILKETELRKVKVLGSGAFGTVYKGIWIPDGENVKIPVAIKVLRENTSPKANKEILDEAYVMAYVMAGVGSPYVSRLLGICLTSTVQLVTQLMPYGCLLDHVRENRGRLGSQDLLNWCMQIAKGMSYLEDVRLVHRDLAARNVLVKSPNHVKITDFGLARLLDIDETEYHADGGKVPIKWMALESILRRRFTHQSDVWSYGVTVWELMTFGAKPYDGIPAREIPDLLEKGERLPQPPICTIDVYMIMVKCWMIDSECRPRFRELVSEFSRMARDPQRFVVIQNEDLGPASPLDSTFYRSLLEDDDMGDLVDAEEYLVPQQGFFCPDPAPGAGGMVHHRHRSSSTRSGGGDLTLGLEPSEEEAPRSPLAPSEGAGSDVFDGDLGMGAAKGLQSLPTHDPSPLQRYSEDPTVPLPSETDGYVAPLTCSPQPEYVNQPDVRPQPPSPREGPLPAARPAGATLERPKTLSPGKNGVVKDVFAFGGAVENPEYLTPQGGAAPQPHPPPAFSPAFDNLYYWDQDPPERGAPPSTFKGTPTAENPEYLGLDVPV
Her2 Exon 20 INSYVMA Ba/F3, sequence (P04626 with tags, fused parts or gaps DUP772-775): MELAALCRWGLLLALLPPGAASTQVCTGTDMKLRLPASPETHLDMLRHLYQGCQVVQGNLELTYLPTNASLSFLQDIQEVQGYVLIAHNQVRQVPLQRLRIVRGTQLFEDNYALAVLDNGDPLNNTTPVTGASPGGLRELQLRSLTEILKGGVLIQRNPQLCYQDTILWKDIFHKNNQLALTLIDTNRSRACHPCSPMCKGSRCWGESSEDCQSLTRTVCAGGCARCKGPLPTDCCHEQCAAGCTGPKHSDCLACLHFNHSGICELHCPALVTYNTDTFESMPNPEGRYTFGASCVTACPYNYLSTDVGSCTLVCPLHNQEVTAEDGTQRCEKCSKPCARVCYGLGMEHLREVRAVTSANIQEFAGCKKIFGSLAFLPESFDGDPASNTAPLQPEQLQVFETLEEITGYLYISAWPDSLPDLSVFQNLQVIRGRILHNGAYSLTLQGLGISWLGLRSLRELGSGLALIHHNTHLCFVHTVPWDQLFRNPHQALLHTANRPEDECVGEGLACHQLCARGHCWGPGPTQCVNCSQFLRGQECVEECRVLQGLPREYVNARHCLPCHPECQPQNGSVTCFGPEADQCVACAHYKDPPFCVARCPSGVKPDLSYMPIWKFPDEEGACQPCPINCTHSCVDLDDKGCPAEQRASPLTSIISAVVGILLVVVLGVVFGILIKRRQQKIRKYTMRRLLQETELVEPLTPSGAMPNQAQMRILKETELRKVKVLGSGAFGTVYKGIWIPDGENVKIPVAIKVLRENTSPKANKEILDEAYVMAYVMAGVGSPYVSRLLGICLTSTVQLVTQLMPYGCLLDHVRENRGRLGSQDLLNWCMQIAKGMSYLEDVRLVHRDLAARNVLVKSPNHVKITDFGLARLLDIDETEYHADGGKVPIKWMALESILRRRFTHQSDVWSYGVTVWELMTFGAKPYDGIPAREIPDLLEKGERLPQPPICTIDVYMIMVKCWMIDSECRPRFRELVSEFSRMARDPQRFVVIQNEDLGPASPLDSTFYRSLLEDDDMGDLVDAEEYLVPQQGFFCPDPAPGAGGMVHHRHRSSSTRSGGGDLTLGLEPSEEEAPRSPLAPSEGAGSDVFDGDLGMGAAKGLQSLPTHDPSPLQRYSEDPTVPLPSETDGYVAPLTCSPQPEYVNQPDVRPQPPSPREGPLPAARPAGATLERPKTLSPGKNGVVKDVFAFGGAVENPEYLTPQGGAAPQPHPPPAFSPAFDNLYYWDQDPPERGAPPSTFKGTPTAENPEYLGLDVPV

Row | Compound | Stability in presence of mouse liver microsomes without cofactor NADPH [% remaining after 50 min] [1] [% remaining after 50 min] | pIC50 (H1781) | pIC50 (HER2 INS YVMA) | pIC50 (EGFR T790ML858R) | GI50 [2] [µM] | pIC50 (EGFR wt) | pIC50 (H1975) | GI50 [3] [µM] | pIC50 (A431)
1 | C=CC(=O)N1CCc2ccc(-c3c(-c4ccc(N5CCN(C)CC5)c(F)c4)[nH]c4nccc(Cl)c34)cc21 [Example 57, 1-(6-(4-chloro-2-(3-fluoro-4-(4-methylpiperazin-1-yl)phenyl)-1H-pyrrolo[2,3-b]pyridin-3-yl)indolin-1-yl)prop-2-en-1-one] | >99 | 4.00 to 6.00 | ≥ 7.00 | ≥ 7.00 | 0.5 to 1 | ≥ 7.00 | 6.30 to 7.00 | 0.1 to 0.5 | 4.00 to 6.00
2 | C=CC(=O)N1CCc2ccc(-c3c(-c4ccc(CN(C)C)cc4)[nH]c4nccc(Cl)c34)cc21 [Example 61, 1-(6-(4-chloro-2-(4-((dimethylamino)methyl)phenyl)-1H-pyrrolo[2,3-b]pyridin-3-yl)indolin-1-yl)prop-2-en-1-one] | >99 | 6.00 to 6.30 | ≥ 7.00 | ≥ 7.00 | 0.1 to 0.5 | ≥ 7.00 | ≥ 7.00 | 0.1 to 0.5 | 6.30 to 7.00
3 | C=CC(=O)Nc1cc(-c2c(-c3ccnc(N4CCN(C)CC4)c3)[nH]c3nccc(Cl)c23)ccc1C [Example 26, N-(5-(4-chloro-2-(2-(4-methylpiperazin-1-yl)pyridin-4-yl)-1H-pyrrolo[2,3-b]pyridin-3-yl)-2-methylphenyl)acrylamide] | >99 | 6.00 to 6.30 | ≥ 7.00 | ≥ 7.00 | 0.1 to 0.5 | ≥ 7.00 | ≥ 7.00 | 0.1 to 0.5 | 6.30 to 7.00
4 | C=CC(=O)Nc1cc(-c2c(-c3cccc(CN4CCN(C)CC4)c3)[nH]c3nccc(Cl)c23)ccc1C [Example 16, N-(5-(4-chloro-2-(3-((4-methylpiperazin-1-yl)methyl)phenyl)-1H-pyrrolo[2,3-b]pyridin-3-yl)-2-methylphenyl)acrylamide] | >99 | 6.00 to 6.30 | ≥ 7.00 | ≥ 7.00 | 0.1 to 0.5 | ≥ 7.00 | ≥ 7.00 | 0.1 to 0.5 | 6.00 to 6.30
5 | C=CC(=O)N1CCCc2ccc(-c3c(-c4ccc(N5CCN(C)CC5)cc4)[nH]c4nccc(Cl)c34)cc21 [Example 86, 1-(7-(4-chloro-2-(4-(4-methylpiperazin-1-yl)phenyl)-1H-pyrrolo[2,3-b]pyridin-3-yl)-3,4-dihydroquinolin-1(2H)-yl)prop-2-en-1-one 2,2,2-trifluoroacetate] | >99 | 4.00 to 6.00 | ≥ 7.00 | ≥ 7.00 | 0.5 to 1 | ≥ 7.00 | 6.30 to 7.00 | 0.5 to 1 | 4.00 to 6.00
6 | C=CC(=O)N1CCOc2ccc(-c3c(-c4ccc(N5CCN(C)CC5)cc4)[nH]c4nccc(Cl)c34)cc21 [Example 83, 1-(6-(4-chloro-2-(4-(4-methylpiperazin-1-yl)phenyl)-1H-pyrrolo[2,3-b]pyridin-3-yl)-2H-benzo[b][1,4]oxazin-4(3H)-yl)prop-2-en-1-one 2,2,2-trifluoroacetate] | >99 | 4.00 to 6.00 | ≥ 7.00 | ≥ 7.00 | 0.1 to 0.5 | ≥ 7.00 | 6.30 to 7.00 | 0.1 to 0.5 | 4.00 to 6.00
7 | C=CC(=O)Nc1cc(-c2c(-c3ccc(N4CCN(S(=O)(=O)CC)CC4)cc3)[nH]c3nccc(Cl)c23)ccc1C [Example 15, N-(5-(4-chloro-2-(4-(4-(ethylsulfonyl)piperazin-1-yl)phenyl)-1H-pyrrolo[2,3-b]pyridin-3-yl)-2-methylphenyl)acrylamide] | >99 | 6.00 to 6.30 | 6.30 to 7.00 | ≥ 7.00 | 0.1 to 0.5 | ≥ 7.00 | ≥ 7.00 | 0.1 to 0.5 | 6.30 to 7.00
8 | C=CC(=O)Nc1cc(-c2c(-c3ccc(OCCN(C)C)cc3)[nH]c3nccc(Cl)c23)ccc1C [Example 18, N-(5-(4-chloro-2-(4-(2-(dimethylamino)ethoxy)phenyl)-1H-pyrrolo[2,3-b]pyridin-3-yl)-2-methylphenyl)acrylamide] | 90 | 6.30 to 7.00 | ≥ 7.00 | ≥ 7.00 | ≤ 0.1 | ≥ 7.00 | ≥ 7.00 | 0.1 to 0.5 | 6.30 to 7.00

Results, then the compound that gave them:

Row | Stability in presence of mouse liver microsomes without cofactor NADPH [% remaining after 50 min] [1] [% remaining after 50 min] | pIC50 (H1781) | pIC50 (HER2 INS YVMA) | pIC50 (EGFR T790ML858R) | GI50 [2] [µM] | pIC50 (EGFR wt) | pIC50 (H1975) | GI50 [3] [µM] | pIC50 (A431) | Compound
9 | 92 | 6.30 to 7.00 | ≥ 7.00 | ≥ 7.00 | 0.1 to 0.5 | ≥ 7.00 | ≥ 7.00 | 0.1 to 0.5 | 6.30 to 7.00 | C=CC(=O)Nc1cc(-c2c(-c3ccc(N4CCNCC4)cc3)[nH]c3nccc(Cl)c23)ccc1C [Example 96, N-(5-(4-chloro-2-(4-(piperazin-1-yl)phenyl)-1H-pyrrolo[2,3-b]pyridin-3-yl)-2-methylphenyl)acrylamide 2,2,2-trifluoroacetate]
10 | >99 | 6.30 to 7.00 | ≥ 7.00 | ≥ 7.00 | 0.1 to 0.5 | ≥ 7.00 | ≥ 7.00 | 0.1 to 0.5 | 6.30 to 7.00 | C=CC(=O)Nc1cc(-c2c(-c3ccc(CCN(C)C)cc3)[nH]c3nccc(Cl)c23)ccc1C [Example 4, N-(5-(4-chloro-2-(4-(2-(dimethylamino)ethyl)phenyl)-1H-pyrrolo[2,3-b]pyridin-3-yl)-2-methylphenyl)acrylamide]
11 | >99 | 6.30 to 7.00 | ≥ 7.00 | ≥ 7.00 | ≤ 0.1 | ≥ 7.00 | ≥ 7.00 | ≤ 0.1 | 6.30 to 7.00 | C=CC(=O)Nc1cc(-c2c(-c3ccc(C4CCN(C)CC4)cc3)[nH]c3nccc(Cl)c23)ccc1C [Example 3, N-(5-(4-chloro-2-(4-(1-methylpiperidin-4-yl)phenyl)-1H-pyrrolo[2,3-b]pyridin-3-yl)-2-methylphenyl)acrylamide]
